From patent US9561228B2 (Celgene Avilomics Research, Inc., priority 2013, dated 2017) come the findings set out here.

The test system of assay [1] is HT-29 cells (colorectal adenocarcinoma). The assay is described as follows: Inhibition of cancer cell proliferation, HT-29 (CellTiterGlo, 72 hours). Type of assay: cell-based. The conditions noted are these: Homo sapiens. In a few lines: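 Proliferation over 72 h at 37° C was read by CellTiterGlo luminescence, translated to cell counts with a cell-density standard curve (390–50,000 cells). Compound added as 3-fold dilutions from a 5,000 nM two-fold stock to 3000 seeded HT-29 cells; GI50 from percent inhibition relative to untreated wells.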

Assay [2] deals with ERK1/2 phosphorylation of p90RSK in HT29 cells. Nature of the assay: pRSK MSD Assay in HT29 cells. The conditions noted are these: Homo sapiens, HT-29, read-out: ERK1/ERK2 PRSK MSD HT29 EC50. It counts as cell-based. In a few lines:
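Phospho-RSK level, read by electrochemiluminescence on RSK-antibody-coated MSD plates with a phospho-RSK/Sulfo-tag detection pair, reports cellular ERK1/2 activity. HT29 cells, kept overnight in 0.1% FBS medium, were exposed to compound for 120 min at 37° C before lysis.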

For assay [3], the system named is A375 cells (malignant melanoma). The assay is described as follows: Inhibition of cancer cell proliferation, A375 (CellTiterGlo, 72 hours). Type of assay: cell-based. The conditions noted are these: Homo sapiens, A-375. Here is the method:
Measurement of Inhibition of Cancer Cell Proliferation (A375/Malignant Melanoma)
The following protocol used an A375 cell line, which cell line is a model for malignant melanoma. A375 cells were split and 3000 cells in […] of growth medium were added per well of a flat-bottom 96-well plate. A two-fold test compound solution in serum-free DMEM was made, starting at 5,000 nM. Then, 3-fold serial dilutions were made across the plate from well 1 to well 11. Well 12, the last well in a row on the plate, was left as untreated control. 100 μl compound solutions were then transferred to the wells, so the total volume of media was 200 μl per well. Plates were returned to a 37° C. incubator, and the cells were cultured for 72 hours. To measure cell proliferation after 72 hours, media was discarded from the plates, 50 μl/well of fresh medium was added, and 50 μl CellTiterGlo solution was added (Promega Cat#G7573). The plate was covered with a dark lid and incubated for 10 min. A white sealing tape was applied to the bottom of the plate, and the plate was read in a luminescence plate reader. […] 50 μl CellTiterGlo was added per well, and the plate was read in a luminescence plate reader after 10 min. The reading was plotted vs. cell number to generate a standard curve and the equation of the curve fit. The compound-treated sample luminescence readings were converted to cell numbers using the curve-fit equation. The percent of inhibition, using untreated control as 100% growth, was then calculated. GI50 was then calculated by GraphPad Prism.
Background: ATP-based viability assays read luminescence as a measure of living cells.

Assay [4] concerns ERK1/2 phosphorylation of p90RSK in HCT116 cells. The assay is described as follows: Detection of total and phospho-RSK by MSD ELISA (HCT116). Type of assay: cell-based. The conditions noted are these: Homo sapiens, HCT-116, read-out: ERK1/ERK2 PRSK HCT116 EC50. As for the experimental part:
Detection of Total and Phospho-RSK by MSD ELISA (HCT116)
(§1) The protocol below describes an assay to measure the kinase activity of ERK1/2 to phosphorylate a substrate, p90RSK, in the presence or absence of a test compound.
HCT116 cells were grown in RPMI/10% FBS. Prior to the assay, 50,000 cells per well were plated in a 96 well flat bottom plate. Cells were cultured overnight in an incubator at 37° C.
Compound stocks were 10 mM in DMSO. A 1000× dilution was made in DMSO. 1 uL of the DMSO solution was transferred to 1 ml RPMI/10% FBS in a deep well plate. Media in the cell plate was discarded, and 100 uL of the compound-containing media was added. The preparation was incubated at 37° C. for 2 hrs.
Preparation of cell lysates are described below.
pRSK or total RSK MSD Assay
MSD plates: Blank MSD plates were coated with 30 uL capture antibody (BD 610226) at a final concentration of 1 ug/mL in PBS. Both pRSK and total RSK MSD assays used the same capture antibody at the same concentration. Antibody stock concentration was 250 ug/mL. Once antibody solution was added to MSD plate, the sides were tapped to be certain it was coated completely (visual inspection). It was then covered and placed at 4° C. overnight on a level surface.
Block MSD Plate: The coating antibody was removed and the plate was washed on a plate washer in MSD wash buffer. The last bit of wash solution was tapped out and 150 uL/well 3% BSA (MSD Blocker A) in MSD wash buffer was added. The preparation was placed on a shaker at room temperature for at least an hour.
Add samples: Media was removed from compound-treated cells and replaced with 55 uL/well MSD cell lysis buffer containing protease and phosphotase I & II inhibitors. The preparations was incubate on a shaker in a cold room for 30-45 min. The blocked MSD plate was washed on a plate washer, and the last bit of wash solution was tapped out. Next was added 50 uL (of the 55 uL) cell lysate in a well-well transfer. The preparation was covered and incubated on shaker at room temp for 2 hours. The lysate was then removed and washed on plate washer 3 times. The last bit of wash buffer was then tapped out and replaced with 25 uL/well detection antibody (described below).
For pRSK detection, a pRSK antibody stock of 21 ug/mL was prepared as follows: 1 ug/mL pRSK Ser380 antibody (Cell Signaling Technology, Cat. #9335)+1:750 anti-rabbit SulfoTag (from MSD, R32AB-1) in 1% BSA in MSD wash buffer.
(§2) For total RSK detection, a total RSK antibody stock of 200 ug/mL was prepared as follows: 1 ug/mL total RSK (Santa Cruz sc-231G) antibody+1:750 anti-goat SulfoTag (from MSD, R32AG-1) in 1% BSA in MSD wash buffer.
The plate was incubated for 1 hr at room temperature on a shaker, followed by three washes. The last bit of wash buffer was tapped out. Next, 150 uL/well 1×MSD Read buffer was added and the plate was analyzed by the MSD reader.
Background: In an ELISA, binding on a coated surface is turned into a signal by an enzyme label.

For assay [5], the system named is ERK1/2 phosphorylation of p90RSK in A375 cells. The assay is described as follows: Detection of total and phosphor-RSK by MSD ELISA (A375). Type of assay: cell-based. The conditions noted are these: Homo sapiens, A-375, read-out: ERK1/ERK2 PRSK A375 EC50. As for the experimental part:
Detection of Total and Phosphor-RSK by MSD ELISA (A375)
as §1
A375 cells were grown in DMEM/10% FBS. Twenty four hours prior to the assay, 50,000 cells per well were plated in a 96 well flat bottom plate. Once cells attached to the plate, the medium was replaced with 100 ul of DMEM/0.1% FBS. Cells were cultured overnight in an incubator at 37° C.
Compound stock solutions of 10 mM in DMSO were prepared. 1000× dilutions were then prepared in DMSO. 1 uL of DMSO solution was then transferred to 1 ml DMEM/0.1% FBS in a deep well plate. Cell plate media was discarded, followed by addition of 100 uL of the compound-containing media. The preparation was incubated at 37° C. for 2 hrs.
Cell lysates were prepared as described below.
pRSK or Total RSK MSD Assay
MSD plates: Blank MSD plates were coated with 30 uL capture antibody (BD 610226) at a final concentration of 1 ug/mL in PBS. Both pRSK and total RSK MSD assays used the same capture antibody at the same concentration. Antibody stock concentration was 250 ug/mL. Once antibody solution was added to the MSD plate, the sides were tapped to be certain it was coated completely (visual inspection). It was then covered and placed at 4° C. overnight on a level surface.
Block MSD Plate: The coating antibody was removed and the plate was washed on a plate washer in MSD wash buffer. The last bit of wash solution was tapped out and 150 uL/well of 3% BSA in MSD wash buffer was added in. The preparation was placed on a shaker at room temperature for at least an hour.
Add samples: Media was removed from compound-treated cells and replaced with 55 uL/well MSD cell lysis buffer containing protease and phosphotase I & II inhibitors. The preparation was incubated on a shaker in a cold room for 30-45 min. The blocked MSD plate was washed a on plate washer, tapping out the last bit of wash solution, followed by addition of 50 uL (of the 55 ul) cell lysate in a well-well transfer. The preparation was covered and incubated on a shaker at room temp for 2 hours. The lysate was removed, washed on a plate washer 3 times, and the last bit of wash buffer was tapped out and replace with 25 uL/well detection antibody (described below).
For pRSK detection, a pRSK antibody stock of 21 ug/mL was prepared as follows: 1 ug/mL pRSK Ser380 antibody (Cell Signaling Technology, Cat. #9335)+1:750 anti-rabbit SulfoTag (Mesoscale Discovery, Cat. # R32AB-1) in 1% BSA in MSD wash buffer.
as §2
The plate was incubated for 1 hr at room temperature on a shaker, followed by three washings. The last bit of wash buffer was tapped out. 150 uL/well 1×MSD Read buffer was added and the plate was then analyzed.

Assay [6] addresses T1, MEK1 activated ERK1 (Homo sapiens, UniProt P27361).
T1 construct: purchased Millipore (Billerica, Mass.) 14-439-K
Nature of the assay: Omnia continuous-read kinase assay for potency against MEK1 activated ERK1. The conditions noted are these: ATP at KM, WT. Type of assay: biochemical. In a few lines: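 Apparent IC50 came from initial reaction slopes (RFU vs time) plotted against log inhibitor with a variable-slope fit. Reactions were started with ERK1 (4 nM final) added to 50 μM ATP, roughly at its appKM, and 10 μM Sox-conjugated ST17 peptide in 20 mM Tris pH 7.5, 5 mM MgCl2. Fluorescence was monitored every 71 seconds.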

What is called GI50 is the concentration at which growth is held to half of that of the control. Read a low GI50 as more potent growth inhibition. Broadly, the IC50 is the midpoint of a concentration-inhibition curve.

T1 sequence (P27361 whole entry): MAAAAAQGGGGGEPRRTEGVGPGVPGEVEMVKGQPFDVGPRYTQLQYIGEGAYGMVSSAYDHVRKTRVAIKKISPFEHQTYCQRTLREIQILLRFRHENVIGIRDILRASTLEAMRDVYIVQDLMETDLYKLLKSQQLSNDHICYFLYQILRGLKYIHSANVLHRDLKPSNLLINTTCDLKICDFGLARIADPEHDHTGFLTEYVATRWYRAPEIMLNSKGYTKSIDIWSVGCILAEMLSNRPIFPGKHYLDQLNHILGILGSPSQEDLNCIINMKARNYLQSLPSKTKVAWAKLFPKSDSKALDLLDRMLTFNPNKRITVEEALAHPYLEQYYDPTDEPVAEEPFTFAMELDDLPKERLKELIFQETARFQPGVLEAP

Take `C=CC(=O)Nc1cc(C)ccc1Nc1nc(NC2CCC(=O)CC2)ncc1C(F)(F)F` [Compound I-38, N-(5-Methyl-2-((2-((4-oxocyclohexyl)amino)-5-(trifluoromethyl)pyrimidin-4-yl)amino)phenyl)acrylamide]: the values for the GI50 in assay [1] and in assay [3] were 501 to 999 nM and 101 to 500 nM, respectively. Also, the EC50 in assay [2] is over 1000 nM.
For `C=CC(=O)Nc1ccccc1Nc1nc(N[C@H]2CCCN(C(N)=O)C2)ncc1C(F)(F)F` [Compound I-18, (S)-3-((4-((2-Acrylamidophenyl)amino)-5-(trifluoromethyl)pyrimidin-2-yl)amino)piperidine-1-carboxamide] the same measures were 101 to 500 nM, 101 to 500 nM and 101 to 500 nM.
The like results for `NC(=O)c1ccccc1Nc1nc(N[C@H]2CCCN(C(=O)CO)C2)ncc1C(F)(F)F` [Compound I-307, (S)-2-((2-((1-(2-hydroxyacetyl)piperidin-3-yl)amino)-5-(trifluoromethyl)pyrimidin-4-yl)amino)benzamide] were, in that order, 101 to 500 nM, under 100 nM and over 1000 nM.
For the compound `C=CC(=O)Nc1ccccc1Nc1nc(NC2CCOCC2)ncc1Cl` [Compound I-108, N-(2-((5-chloro-2-((tetrahydro-2H-pyran-4-yl)amino)pyrimidin-4-yl)amino)phenyl)acrylamide], the GI50 in assay [1] was under 100 nM; in assay [3], 101 to 500 nM.
`C=CC(=O)Nc1ccccc1Nc1nc(Nc2cc(C(N)=O)ccc2OC)ncc1C(F)(F)F` [Compound I-70, 3-((4-((2-Acrylamidophenyl)amino)-5-(trifluoromethyl)pyrimidin-2-yl)amino)-4-methoxybenzamide]: the GI50 in assay [1] and in assay [3] was under 100 nM in each case. For the same compound, the EC50 in assay [2] was under 100 nM.
For the compound `C=CC(=O)Nc1cc(C)ccc1Nc1nc(N[C@H]2CCCN(C(=O)CC)C2)ncc1C(F)(F)F` [Compound I-41, (S)—N-(5-Methyl-2-((2-((1-propionylpiperidin-3-yl)amino)-5-(trifluoromethyl)pyrimidin-4-yl)amino)phenyl)acrylamide], the GI50 in assay [1] and in assay [3] was under 100 nM each time.
On to `C=CC(=O)Nc1cc(C)ccc1Nc1nc(Nc2cc(OC)ncc2CO)ncc1C(F)(F)F` [Compound I-428, N-(2-((2-((5-(hydroxymethyl)-2-methoxypyridin-4-yl)amino)-5-(trifluoromethyl)pyrimidin-4-yl)amino)-5-methylphenyl)acrylamide], for which the EC50 in assay [4] and in assay [5] was 101 to 500 nM in each case. Further, the IC50 in assay [6] is over 1000 nM.
Take `C=CC(=O)Nc1cc(C)ccc1Nc1nc(Nc2cc(OC)ncc2CF)ncc1C(F)(F)F` [Compound I-429, N-(2-((2-((5-(fluoromethyl)-2-methoxypyridin-4-yl)amino)-5-(trifluoromethyl)pyrimidin-4-yl)amino)-5-methylphenyl)acrylamide]: the EC50 in assay [4] fell in the range of 501 to 999 nM; in assay [5] it was 101 to 500 nM. The IC50 in assay [6] was over 1000 nM.
On to `C/C=C/S(=O)(=O)Nc1cc(F)ccc1Nc1nc(N[C@H]2CCCN(C(=O)CO)C2)ncc1C(F)(F)F` [Compound I-48, (S,E)-N-(5-Fluoro-2-((2-((1-(2-hydroxyacetyl)piperidin-3-yl)amino)-5-(trifluoromethyl)pyrimidin-4-yl)amino)phenyl)prop-1-ene-1-sulfonamide], for which the GI50 in assay [1] and in assay [3] was over 1000 nM each time.
Consider `C=CC(=O)Nc1ccccc1Nc1nc(NC2CCC(=O)CC2)ncc1C(F)(F)F` [Compound I-23, N-(2-((2-((4-Oxocyclohexyl)amino)-5-(trifluoromethyl)pyrimidin-4-yl)amino)phenyl)acrylamide], for which the GI50 is under 100 nM in assay [1] and 101 to 500 nM in assay [3].
With `C=CC(=O)Nc1cc(C)ccc1Nc1nc(Nc2cc(OC)nn2C)ncc1C(F)(F)F` [Compound I-430, N-(2-((2-((3-methoxy-1-methyl-1H-pyrazol-5-yl)amino)-5-(trifluoromethyl)pyrimidin-4-yl)amino)-5-methylphenyl)acrylamide], the EC50 in assay [4] and in assay [5] was 501 to 999 nM each time. Further, the IC50 in assay [6] was in the range of 501 to 999 nM.
